Test results reported in patent US20150290235A1, “USE OF SMALL MOLECULE INHIBITORS/ACTIVATORS IN COMBINATION WITH (DEOXY)NUCLEOSIDE OR (DEOXY)NUCLEOTIDE ANALOGS FOR TREATMENT OF CANCER AND HEMATOLOGICAL MALIGNANCIES OR VIRAL INFECTIONS” (AB SCIENCE, priority 2012, published 2015).
Read-outs that look alike come from different tables or passages of the source. Marks after values point to notes of the source that are not given here.

How the values were obtained:
[1] = tested on: BxPC-3 pancreatic cancer cells; experiment: WST-1 proliferation assay, BxPC-3; type: cell-based, human
Experimental: (§1) Cancer cell lines: Pancreatic cancer cells lines (Mia Paca-2, Panc-1, BxPC-3 and Capan-2) were obtained from Dr. Juan Iovanna (Inserm, France). Cells were maintained in RPMI (BxPC-3, Capan-2) or DMEM (Mia Paca-2, Panc-1) medium containing glutamax-1 (Lonza), supplemented with 100 U/ml penicillin/100 μg/ml streptomycin, and 10% fetal calf serum (FCS) (AbCys, Lot S02823S1800). Expression of tyrosine kinases was determined by RT-PCR using Hot Star Taq (Qiagen GmbH, Hilden, Germany) in a 2720 Thermal Cycler (Applied Biosystems).
(§2) Treatment was started with the addition of the respective drug. […] After 72 hours WST-1 reagent was added and incubated with the cells for 4 hours before absorbance measurement at 450 nm in an EL800 Universal Microplate Reader (Bio-Tek Instruments Inc.). Media alone was used as a blank and proliferation in the absence of compounds served as positive control. Results are representative of three/four experiments.

[2] = tested on: Capan-2 pancreatic cancer cells; experiment: WST-1 proliferation assay, Capan-2; type: cell-based, human; conditions: Homo sapiens
Experimental: as §1, §2

[3] = tested on: Mia Paca-2 pancreatic cancer cells; experiment: WST-1 proliferation assay, Mia Paca-2; type: cell-based, human; conditions: Homo sapiens
[4] = tested on: Panc-1 pancreatic cancer cells; experiment: WST-1 proliferation assay, Panc-1; type: cell-based, human; conditions: Homo sapiens
Experimental: as §1, §2

[5] = tested on: MDAMB 231 breast cancer cells; experiment: WST-1 proliferation/survival assay, MDAMB 231; type: cell-based; conditions: Homo sapiens, MDA-MB-231, read-out: Gemcitabine IC50
Experimental: (§3) Gemcitabine (Gemzar, Lilly France) was obtained as a powder and dissolved in sterile 0.9% NaCl solution and stored as aliquots at −80° C. Fresh dilutions were prepared fcr each experiment. Cell lines: Colon and prostate cancer cell lines (Dr. Juan Iovanna, INSERM U624, Marseille, France), breast and ovarian cancer cell lines (Dr. Patrice Dubreuil, UMR 599 INSERM, Marseille, France), and lung cancer cell lines (Pr. Christian Auclair, UMR 8113 CNRS) were cultured as monolayers in RPMI 1640 medium containing L-glutamine supplemented with 100 U/ml penicillin and 100 μg/ml streptomycin, and 10% v/v heat-inactivated fetal calf serum (AbCys Lot S02823S1800) under standard culture conditions (5% CO2, 95% air in humidified chamber at 37° C.). In proliferation assays, all cells were grown in medium containing 1% FCS.
as §2, with “control (DMSO control). The new IC50 was scored and the results” for “control. Results”, “3-4” for “three/four”

[6] = tested on: MDAMB 134 breast cancer cells; experiment: WST-1 proliferation/survival assay, MDAMB 134; type: cell-based; conditions: Homo sapiens, read-out: Gemcitabine IC50
Experimental: as §3
as §2, with “control (DMSO control). The new IC50 was scored and the results” for “control. Results”, “3-4” for “three/four”

BT20 breast cancer cells = experiment: WST-1 proliferation/survival assay, BT20; type: cell-based; conditions: Homo sapiens, BT-20, read-out: Gemcitabine IC50
Experimental: as §3
as §2, with “control (DMSO control). The new IC50 was scored and the results” for “control. Results”, “3-4” for “three/four”

[7] = tested on: BT474 breast cancer cells; experiment: WST-1 proliferation/survival assay, BT474; type: cell-based; conditions: Homo sapiens, BT-474, read-out: Gemcitabine IC50
Experimental: as §3
as §2, with “control (DMSO control). The new IC50 was scored and the results” for “control. Results”, “3-4” for “three/four”

[8] = tested on: LnCaP prostate cancer cells; experiment: WST-1 proliferation/survival assay, LnCaP; type: cell-based; conditions: Homo sapiens, read-out: Gemcitabine IC50
Experimental: as §3
as §2, with “control (DMSO control). The new IC50 was scored and the results” for “control. Results”, “3-4” for “three/four”

[9] = tested on: DU145 prostate cancer cells; experiment: WST-1 proliferation/survival assay, DU145; type: cell-based; conditions: Homo sapiens, DU-145, read-out: Gemcitabine IC50
Experimental: as §3
as §2, with “control (DMSO control). The new IC50 was scored and the results” for “control. Results”, “3-4” for “three/four”

[10] = tested on: OVCAR3 ovarian cancer cells; experiment: WST-1 proliferation/survival assay, OVCAR3; type: cell-based; conditions: Homo sapiens, OVCAR-3, read-out: Gemcitabine IC50
Experimental: as §3
as §2, with “control (DMSO control). The new IC50 was scored and the results” for “control. Results”, “3-4” for “three/four”

[11] = tested on: CaCo-2 colorectal cancer cells; experiment: WST-1 proliferation/survival assay, CaCo-2; type: cell-based; conditions: Homo sapiens, read-out: Gemcitabine IC50
Experimental: as §3
as §2, with “control (DMSO control). The new IC50 was scored and the results” for “control. Results”, “3-4” for “three/four”

[12] = tested on: HRT118 colorectal cancer cells; experiment: WST-1 proliferation/survival assay, HRT118; type: cell-based; conditions: Homo sapiens, read-out: Gemcitabine IC50
Experimental: as §3
as §2, with “control (DMSO control). The new IC50 was scored and the results” for “control. Results”, “3-4” for “three/four”

A549 NSCLC cells = experiment: WST-1 proliferation/survival assay, A549; type: cell-based; conditions: Homo sapiens, read-out: Gemcitabine IC50
Experimental: as §3
as §2, with “control (DMSO control). The new IC50 was scored and the results” for “control. Results”, “3-4” for “three/four”

H1299 NSCLC cells = experiment: WST-1 proliferation/survival assay, H1299; type: cell-based; conditions: Homo sapiens, NCI-H1299, read-out: Gemcitabine IC50
Experimental: as §3
as §2, with “control (DMSO control). The new IC50 was scored and the results” for “control. Results”, “3-4” for “three/four”

H1650 NSCLC cells = experiment: WST-1 proliferation/survival assay, H1650; type: cell-based; conditions: Homo sapiens, NCI-H1650, read-out: Gemcitabine IC50
Experimental: as §3
as §2, with “control (DMSO control). The new IC50 was scored and the results” for “control. Results”, “3-4” for “three/four”

[13] = tested on: Abrams osteosarcoma cells; experiment: Alamar Blue cell proliferation assay, Abrams; type: cell-based, canine; conditions: Canis lupus familiaris, 72 h, read-out: Combination IC50 (chemotherapeutic agent with fixed masitinib)
D17 osteosarcoma cells = experiment: Alamar Blue cell proliferation assay, D17; type: cell-based, canine; conditions: Canis lupus familiaris, 72 h, read-out: Combination IC50 (chemotherapeutic agent with fixed masitinib)
[14] = tested on: CMT12 breast carcinoma cells; experiment: Alamar Blue cell proliferation assay, CMT12; type: cell-based, canine; conditions: Canis lupus familiaris, Breast carcinoma cell, 72 h, read-out: Combination IC50 (chemotherapeutic agent with fixed masitinib)
[15] = tested on: CMT27 breast carcinoma cells; experiment: Alamar Blue cell proliferation assay, CMT27; type: cell-based, canine; conditions: Canis lupus familiaris, Breast carcinoma cell, 72 h, read-out: Combination IC50 (chemotherapeutic agent with fixed masitinib)
C2 mastocytoma cells = experiment: Alamar Blue cell proliferation assay, C2; type: cell-based, canine; conditions: Canis lupus familiaris, 72 h, read-out: Combination IC50 (chemotherapeutic agent with fixed masitinib)
[16] = tested on: Mia Paca-2 pancreatic tumors; experiment: Nog-SCID mouse model of human pancreatic cancer; type: in vivo, Nog-SCID mice; conditions: day 56, 28 days of treatment; control 1023

In the case of `Nc1ccn([C@@H]2O[C@H](CO)[C@@H](O)C2(F)F)c(=O)n1` [Gemcitabine, 4-amino-1-(2-deoxy-2,2-difluoro-β-D-erythro-pentofuranosyl)pyrimidin-2(1H)-on 2′,2′-difluoro-2′-deoxycytidine], the IC50 ([1]; BxPC-3, 72 hours, 1% FCS, read-out: IC50, single agent) is reported as 2 to 20 µM, the IC50 ([1]; Homo sapiens, BXPC-3, read-out: IC50 of gemcitabine plus 5 μM masitinib, BxPC-3, masitinib overnight before gemcitabine) is reported as 10 µM and the IC50 ([1]; Homo sapiens, BXPC-3, read-out: IC50 of gemcitabine plus 10 μM masitinib, BxPC-3, masitinib overnight before gemcitabine) is reported as 10 µM. The IC50 ([2]; Capan-2, 72 h, Capan-2, 72 hours, 1% FCS, read-out: IC50, single agent) was 2 to 20 µM, the IC50 ([2]; Capan-2, read-out: IC50 of gemcitabine plus 5 μM masitinib, Capan-2, masitinib overnight before gemcitabine) was 2 µM and the IC50 ([3]; MIA PaCa-2, read-out: IC50 of gemcitabine plus 5 μM masitinib) was 1.5 µM. For the same compound, the IC50 ([3]; MIA PaCa-2, read-out: IC50 of gemcitabine plus 10 μM masitinib) was 0.025 µM, the IC50 ([3]; Mia Paca-2, 72 hours, 1% FCS, read-out: IC50, single agent) was over 10 µM and the IC50 ([3]; Mia Paca-2, read-out: IC50, single agent (resistance)) was over 2500 µM. It also gave an IC50 ([4]; PANC-1, read-out: IC50 of gemcitabine plus 5 μM masitinib) of 8 µM, an IC50 ([4]; PANC-1, read-out: IC50 of gemcitabine plus 10 μM masitinib) of 1 µM and an IC50 ([4]; Panc-1, 72 hours, 1% FCS, read-out: IC50, single agent) of over 10 µM. For the same compound, the IC50 ([4]; Panc-1, read-out: IC50, single agent (resistance)) was over 2500 µM, the IC50 [5] was 100 µM and the IC50 [6] was 100 µM. For the same compound, the IC50 (BT20 breast cancer cells) was 50 µM, the IC50 [7] was 100 µM and the IC50 [8] was 25 to 100 µM. It also gave an IC50 [9] of 100 µM, an IC50 [10] of 50 µM and an IC50 [11] of over 100 µM. It also gave an IC50 [12] of over 100 µM, an IC50 (A549 NSCLC cells) of 100 µM and an IC50 (H1299 NSCLC cells) of 100 µM. The IC50 (H1650 NSCLC cells) was 5 µM, the IC50 [13] was 1 µM and the IC50 (D17 osteosarcoma cells) was 1.3 µM. It also gave an IC50 [14] of 10.8 µM, an IC50 [15] of 1.3 µM and an IC50 (C2 mastocytoma cells) of over 100 µM. For the same compound, the “Tumor Volume, Median” value [16] was 662* mm^3.
